Measured values from ChEMBL document CHEMBL6083237, “Adenanthin exhibits anti-inflammatory effects by covalently targeting the p65 subunit in the NF-κB signaling pathway” (Eur J Med Chem, 2024).
Active and inactive are the calls of the source. The calls are words filed in the database; no cut-off is given here.

Key:
Transcription factor p65 [1] = biological target: T1, Transcription factor p65 (Homo sapiens, UniProt Q04206); assay: (§1) Binding affinity to recombinant FLAG-tagged p65 (unknown origin) expressed in HEK293T cells assessed as retention time of carbamidomethylation on Cys38 residue of C38EGRSAGSIPGERSTDTTK56 with m/z 814.7165 measured following LysC digestion at 10 uM incubated for 3 hrs by HCD/EThcD based mass spectrometry; assay type: cell-based
Transcription factor p65 [2] = biological target: T1, Transcription factor p65; assay: as §1, with “814.7164” for “814.7165”; assay type: cell-based
RAW264.7 [3] = assay: Inhibition of p65 phosphorylation in LPS-stimulated mouse RAW264.7 cells at 1 to 10 uM incubated for 6 hrs by wester blot analysis; assay type: cell-based; details: dose 1-10 µM
[4] = biological target: T2, NF-kappa-B inhibitor alpha (Mus musculus) (UniProt Q9Z1E3); assay: Inhibition of IkappaB alpha phosphorylation in LPS-stimulated mouse RAW264.7 cells at 1 to 10 uM incubated for 6 hrs by western blot analysis; assay type: cell-based; details: dose 1-10 µM
T2 sequence (whole entry): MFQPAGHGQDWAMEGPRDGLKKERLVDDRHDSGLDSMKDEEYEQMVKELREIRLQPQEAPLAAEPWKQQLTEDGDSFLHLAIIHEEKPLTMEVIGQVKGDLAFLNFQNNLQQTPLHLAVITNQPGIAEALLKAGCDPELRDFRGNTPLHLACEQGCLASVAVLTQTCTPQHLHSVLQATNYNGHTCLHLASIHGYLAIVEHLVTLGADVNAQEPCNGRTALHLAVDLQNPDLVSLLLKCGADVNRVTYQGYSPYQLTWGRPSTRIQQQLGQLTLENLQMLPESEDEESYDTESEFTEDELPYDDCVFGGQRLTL

RAW264.7 [5] = assay: Inhibition of p65 nuclear translocation in LPS-stimulated mouse RAW264.7 cells at 1 to 10 uM incubated for 6 hrs by western blot analysis; assay type: cell-based; details: dose 1-10 µM
RAW264.7 [6] = assay: Inhibition of NF-kappaB signaling pathway in mouse RAW264.7 cells assessed as decrease in COX-2 protein expression at 10 to 75 uM incubated for 6 hrs by western blot analysis; assay type: cell-based; details: dose 10-75 µM
RAW264.7 [7] = assay: Inhibition of NF-kappaB signaling pathway in mouse RAW264.7 cells assessed as decrease in iNOS protein expression at 10 to 75 uM incubated for 6 hrs by western blot analysis; assay type: cell-based; details: dose 10-75 µM
Transcription factor p65 [8] = biological target: T1, Transcription factor p65; assay: Displacement of biotin-labeled p65 binding oligonucleotides from p65 (unknown origin) overexpressed in HEK293T cell nuclear extract incubated for 2 hrs by electrophoretic mobility shift assay; assay type: subcellular, Nucleus
[9] = Displacement of biotin-labeled p65 binding oligonucleotides from p65/p65-C38A mutant (unknown origin) overexpressed in HEK293T cell nuclear extract incubated for 2 hrs by electrophoretic mobility shift assay; assay type: subcellular, Homo sapiens, Nucleus
HEK-293T [10] = assay: Antiproliferative activity against HEK293T cells assessed as inhibition of cell proliferation incubated for 72 hrs by Alamar Blue dye based fluorescence analysis; assay type: functional; details: Homo sapiens
HEK-293T [11] = assay: Antiproliferative activity against HEK293T cells overexpressing p65 assessed as inhibition of cell proliferation incubated for 72 hrs by Alamar Blue dye based fluorescence analysis; assay type: functional; details: Homo sapiens
HEK-293T [12] = assay: Antiproliferative activity against HEK293T cells overexpressing p65 C38A mutant assessed as inhibition of cell proliferation incubated for 72 hrs by Alamar Blue dye based fluorescence analysis; assay type: functional; details: Homo sapiens
[13] = Ratio of IC50 for antiproliferative activity against HEK293T cells overexpressing p65 C38A mutant to IC50 for HEK293T cells overexpressing p65; assay type: functional, Homo sapiens
HEK-293T [14] = assay: Antiproliferative activity against mutant HEK293T cells overexpressing p65 C38A mutant assessed as inhibition of cell proliferation incubated for 72 hrs by Alamar Blue dye based fluorescence analysis; assay type: functional; details: Homo sapiens
[15] = Ratio of IC50 for antiproliferative activity against mutant HEK293T cells overexpressing p65 C38A mutant to IC50 for antiproliferative activity against HEK293T cells; assay type: functional, Homo sapiens
Transcription factor p65 [16] = biological target: T1, Transcription factor p65; assay: Binding affinity to recombinant FLAG-tagged p65 (unknown origin) expressed in HEK293T cells assessed as 490.2203 Da modification on Cys38 residue of C38EGRSAGSIPGERSTDTTK56 measured following LysC digestion at 10 uM incubated for 3 hrs by HCD/EThcD based mass spectrometry; assay type: cell-based

T1 sequence (Q04206 whole entry): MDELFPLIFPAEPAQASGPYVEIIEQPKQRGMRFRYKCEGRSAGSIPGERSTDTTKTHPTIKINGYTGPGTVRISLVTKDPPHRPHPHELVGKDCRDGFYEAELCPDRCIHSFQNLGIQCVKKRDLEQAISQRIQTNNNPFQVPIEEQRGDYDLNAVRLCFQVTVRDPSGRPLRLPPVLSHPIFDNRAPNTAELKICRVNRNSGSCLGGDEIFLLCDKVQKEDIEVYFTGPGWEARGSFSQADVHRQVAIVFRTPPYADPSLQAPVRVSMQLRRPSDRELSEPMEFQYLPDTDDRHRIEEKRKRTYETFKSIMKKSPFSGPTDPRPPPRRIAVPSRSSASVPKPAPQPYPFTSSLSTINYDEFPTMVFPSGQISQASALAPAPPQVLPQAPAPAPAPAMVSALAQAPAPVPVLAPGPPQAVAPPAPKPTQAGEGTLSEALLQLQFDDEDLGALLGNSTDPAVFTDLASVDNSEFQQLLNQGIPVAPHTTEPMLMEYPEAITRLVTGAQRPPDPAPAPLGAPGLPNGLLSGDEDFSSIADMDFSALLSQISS

C=C1C(=O)[C@]23C[C@H]1C[C@H](OC(C)=O)[C@H]2[C@]1(C)[C@@H](OC(C)=O)C[C@H](O)C(C)(C)[C@H]1C(=O)[C@@H]3OC(C)=O [ADENANTHIN]
Retention time (Transcription factor p65 [1]): 14.4 min
Retention time (Transcription factor p65 [2]): 14.6 min
inhibition (RAW264.7 [3]): Dose-dependent-effect
inhibition [4]: Dose-dependent-effect
inhibition (RAW264.7 [5]): Active
inhibition (RAW264.7 [6]): Active
inhibition (RAW264.7 [7]): Active
IC50 (Transcription factor p65 [8]): ~40 µM
IC50 [9]: ~100 µM
IC50 (HEK-293T [10]): 0.72 µM
IC50 (HEK-293T [11]): 0.81 µM
IC50 (HEK-293T [12]): 2 µM
Ratio IC50 [13]: 2
IC50 (HEK-293T [14]): 9.94 µM
Ratio IC50 [15]: 10
Activity (Transcription factor p65 [16]): Active
